The source of these data is PubChem BioAssay AID1996.

≈ marks a conversion by molar mass, not a printed value.

The conditions of the data set: buffer; pH 7.4; 200.0 µM.
For `Cn1cccc1C(=O)OCc1ccc(C(C)(C)C)cc1`, the kinetic solubility was determined as 0.7 µg/mL (≈ 2.58 µM).

Compound `CN(CC(=O)NCc1ccccc1)Cc1ccc(Cl)cc1` displayed a solubility (kinetic) of 43.3 µg/mL (≈ 143 µM).

With `CC(=O)Cn1ncc(N2CCOCC2)c(Cl)c1=O`, the kinetic solubility was over 40.8 µg/mL.

Take `O=C(COC(=O)c1ccc(F)cc1)NC1CC1`: the solubility (kinetic) was over 35.6 µg/mL.

`CCOC(=O)c1ccc(NC(=S)NCc2ccccc2)cc1` returned a solubility (kinetic) of under 0.3 µg/mL.

In turn, `c1ccc(-n2cnc3ccccc32)cc1` came in with a kinetic solubility of 24.6 µg/mL (≈ 127 µM).

Regarding `CCN(CC)CCC(=O)c1ccc(F)cc1.Cl`, the kinetic solubility was over 39 µg/mL.

`CC(=O)c1ccc(S(=O)(=O)N2CCN(CCOc3ccccc3)CC2)cc1` gave a kinetic solubility of 53.6 µg/mL (≈ 138 µM).

`Cn1c(=O)c(C(=O)c2ccc(S(C)(=O)=O)c(Cl)c2Cl)c(O)c2ccccc21`: the solubility (kinetic) was over 63.9 µg/mL.

Compound `CCOc1ccc(Cc2onc3c2C(=O)CC(C)(C)C3)cc1OCC` came in with a kinetic solubility of 32.6 µg/mL (≈ 94.9 µM).

Compound `COc1ccc(-c2c(C)nc(N)nc2-c2ccc(OC)cc2O)cc1` returned a solubility (kinetic) of 7.4 µg/mL (≈ 21.9 µM).

In turn, `C=CCC(=O)N1CCCC(CCC(=O)NCc2ccccc2F)C1` (stereo not drawn) displayed a kinetic solubility of over 49.9 µg/mL.

`O=C(CN1C(=O)NC2(CCSC2)C1=O)NCc1ccccc1` (stereo not drawn): the solubility (kinetic) is over 47.9 µg/mL.

In turn, `CCCc1c(C)[nH]c2nc3ccccc3n2c1=O` gave a solubility (kinetic) of 3.6 µg/mL (≈ 14.9 µM).

`CCC(C)c1ccccc1OCCCN(C)Cc1ccccc1` (stereo not drawn): the kinetic solubility stood at 4.1 µg/mL (≈ 13.2 µM).

For `COc1ccc(-c2nc3ccccn3c2Cl)cc1`, the kinetic solubility came out at 4.4 µg/mL (≈ 17 µM).

Turning to `COc1cccc(CC(=O)OCC(=O)NC2CCCC2)c1`, the solubility (kinetic) is over 43.7 µg/mL.

With `NC(CO)(CO)COCc1ccccc1`, the solubility (kinetic) was over 31.7 µg/mL.

`O=C(CNC(=O)COc1ccccc1)NCCc1ccccn1` yielded a solubility (kinetic) of over 47 µg/mL.

In turn, `Cc1ccc(NC(=O)CCCc2nc3ccccc3s2)c(O)c1` displayed a kinetic solubility of over 49 µg/mL.

`CC(=O)Nc1c(-c2ccccc2)nc2ccc(Cl)cn12` yielded a solubility (kinetic) of 42.7 µg/mL (≈ 149 µM).

On to `COc1ccccc1C(=O)NNC(=O)C(=O)NC(C)C`, for which the kinetic solubility was over 41.9 µg/mL.

In turn, `Cc1cc(C)c(C)c(S(=O)(=O)N[C@@H](C)C(=O)OCC(N)=O)c1C` gave a solubility (kinetic) of over 51.4 µg/mL.

`CSc1ncc(C(=O)Nc2ccc(Cl)cc2)c(C)n1`: the solubility (kinetic) is 12.7 µg/mL (≈ 43.2 µM).

`CCOc1ccc(NC(=O)C2CC(=O)N(Cc3ccco3)C2)cc1` (stereo not drawn) came in with a kinetic solubility of over 49.3 µg/mL.

`O=c1c(Cc2ccccc2)c(O)ccn1C1CCCCCCC1` displayed a kinetic solubility of 1.5 µg/mL (≈ 4.82 µM).

As for `Cc1[nH]c2ccccc2c1C(=O)C(=O)N1CCC2(CC1)OCCO2`, the kinetic solubility is over 49.3 µg/mL.

Take `O=C(O)CCn1c(Cc2ccccc2)nc2ccccc21`: the solubility (kinetic) is over 42 µg/mL.

Compound `Cc1ccc(C(=O)CCC(=O)Nc2ccccc2C)c(C)c1` returned a solubility (kinetic) of 1.3 µg/mL (≈ 4.4 µM).

On to `O=C(CSC(=S)N1CCCCC1)Nc1ncc2c(n1)CCCC2=O`, for which the solubility (kinetic) was 11.3 µg/mL (≈ 31 µM).

For the compound `COCCNc1ncnc2c1[nH]c1ccccc12`, the kinetic solubility is 36.2 µg/mL (≈ 149 µM).

Regarding `O=C(CCCn1c(=O)oc2ccccc21)Nc1ccccc1`, the solubility (kinetic) turned out to be 42.2 µg/mL (≈ 142 µM).

For the compound `CC(C)c1nc2sc3c(=S)nc[nH]c3c2c2c1CCC2`, the solubility (kinetic) worked out at 4.5 µg/mL (≈ 14.9 µM).

With `O=C1Nc2cccnc2N(C(=O)CCl)c2ccccc21`, the solubility (kinetic) is over 43.2 µg/mL.

Regarding `Cc1ccc2oc(=O)c(/C=C(\O)C(C)(C)C)nc2c1`, the kinetic solubility is 28.3 µg/mL (≈ 109 µM).

In the case of `COC(=O)c1c(C)oc(C)c1S(=O)(=O)NCc1ccc(Cl)cc1`, the kinetic solubility was determined as 5 µg/mL (≈ 14 µM).

In turn, `Cc1c(Cl)cccc1NC(=S)NC(=O)c1cncc(Br)c1` came in with a kinetic solubility of 5.1 µg/mL (≈ 13.3 µM).

In turn, `COc1ccc(OC)c(Nc2ncnc3sccc23)c1` registered a kinetic solubility of 42.2 µg/mL (≈ 147 µM).

Consider `COc1ccc(Cl)cc1NC(=O)NCCN1CCCCC1`, for which the kinetic solubility was over 46.8 µg/mL.

For `CCCOc1ccc(Cl)cc1/C=C1/C(=O)ON=C1C`, the solubility (kinetic) amounted to 29.2 µg/mL (≈ 104 µM).

Take `O=C(CN1C(=O)NC2(CCc3ccccc32)C1=O)NCc1ccc(Cl)cc1` (stereo not drawn): the kinetic solubility is over 57.6 µg/mL.

`O=C(NCCN1CCCCC1)Nc1cccc(F)c1` yielded a solubility (kinetic) of over 39.8 µg/mL.

In turn, `Cc1ccnc(NC(=O)c2ccc(Cl)cc2Cl)n1` gave a solubility (kinetic) of 31.7 µg/mL (≈ 112 µM).

The compound `COc1cccc(/C(N)=N/OC(=O)Cc2ccccc2[N+](=O)[O-])c1` displayed a solubility (kinetic) of 31.7 µg/mL (≈ 96.3 µM).

For the compound `COc1cc2c(cc1OC)C(c1ccccc1)NCC2` (stereo not drawn), the solubility (kinetic) is over 40.4 µg/mL.

`CCNC(=O)N1CCN(C(=O)NCC)CC1` displayed a kinetic solubility of 13.6 µg/mL (≈ 59.6 µM).

`Cn1cccc1C(=O)OCC(=O)Nc1ccc2c(c1)OCO2`: the kinetic solubility was 17.4 µg/mL (≈ 57.6 µM).

`CC(C)(C)NC(=O)C1CC(=O)N(CCc2ccc(F)cc2)C1` (stereo not drawn): the solubility (kinetic) is over 46 µg/mL.

The compound `Cc1ccc(CC(=O)N2CCN(C)CC2)cc1` returned a kinetic solubility of over 34.8 µg/mL.

For the compound `O=C(NCc1ccccc1)c1ccc[nH+]c1.[Cl-]`, the kinetic solubility is over 37.3 µg/mL.

As for `COc1cc(OC)cc(C(=O)O/N=C(\N)c2ccccn2)c1`, the solubility (kinetic) worked out at 40.6 µg/mL (≈ 135 µM).

`CCn1c(=S)[nH]c2cc(C(=O)O)ccc21` came in with a solubility (kinetic) of over 33.3 µg/mL.

As for `CCC(=O)NCCc1nc2cc(NC(=O)c3cccs3)ccc2n1C`, the kinetic solubility is over 53.5 µg/mL.

The term solubility (kinetic) denotes solubility judged after dilution from a stock solution rather than from solid.
